Data as given in US20210130401A1, “PEPTIDOMIMETIC INHIBITORS OF THE WDR5-MLL INTERACTION” (THE REGENTS OF THE UNIVERSITY OF MICHIGAN, priority 2017, published 2021).
Starred links: 1 amine or outer side, 2 acyl side, 3 side chain; linkers in the order of their positions; H or OH if unused. Positions of bridges follow the written chain, without caps; N, C: chain ends. Non-standard residues stand in square brackets, D forms with d. Residues, ends and D or L forms follow the SMILES beside them. ξ: configuration not given here. *: point of attachment. Orn(2-imidazolinyl) = N[C@@H](CCCNC1=NCCN1)C(=O)O; Arg(NO2) = N=C(NCCC[C@H](N)C(=O)O)N[N+](=O)[O-]; dαMeDab = C[C@](CCN[*:3])(N[*:1])C(=O)[*:2]; dPhg(2-OMe) = COc1ccccc1[C@@H](N)C(=O)O; dPhe(4-F) = N[C@H](Cc1ccc(F)cc1)C(=O)O; d1Nal = N[C@H](Cc1cccc2ccccc12)C(=O)O; dGly(cPent) = N[C@@H](C(=O)O)C1CCCC1; Lys(Me2) = CN(C)CCCC[C@H](N)C(=O)O; dCha = N[C@H](CC1CCCCC1)C(=O)O; dPhg = N[C@@H](C(=O)O)c1ccccc1; ξhhPhe = NC(CCCc1ccccc1)C(=O)O; ξhPhe = NC(CCc1ccccc1)C(=O)O; Imidazol2yl = c1c[nH]c(*)n1; Isobutyryl = CC(C)C(=O)*; Orn = NCCC[C@H](N)C(=O)O; Dab = NCC[C@H](N)C(=O)O; Abu = CC[C@H](N)C(=O)O; ξOrn = NCCCC(N)C(=O)O; ClAc = O=C(CCl)*

What follows are molecules tested on MOLM-13 leukemia cells carrying MLL-AF9 fusion (assay: cell viability assay (WST-8), MOLM-13). Settings: Homo sapiens, MOLM-13, 96 h, read-out: MOLM-13 IC50 (μM).
Format: cell-based
Method: To assess cell viability, MOLM-13 leukemia cells carrying MLL-AF9 fusion, MV4;11 leukemia cells carrying MLL-AF4 fusion or HL-60 leukemia cells carrying no MLL fusion were seeded 1×10^4 cell/well in 96-well plates and treated with an inhibitor for 4 days at different concentrations, in culture media containing 0.2% DMSO as the final concentration. Cell viability was determined using the WST-8 cell proliferation assay kit (Dojindo Molecular Technologies) according to manufacturer's instructions. Three independent experiments in triplicates were performed.
With `CC[C@@H]1NC(=O)[C@H](CCCNC2=NCCN2)NC(=O)[C@](C)(NC(=O)C(C)C)CCNC(=O)[C@@H](CC2CCCCC2)NC1=O` [Cpd. No. 30, N-((3R,6S,9S,12R)-3-(cyclohexylmethyl)-9-(3-((4,5-dihydro-1H-imidazol-2-yl)amino)propyl)-6-ethyl-12-methyl-2,5,8,11-tetraoxo-1,4,7,10-tetraazacyclotetradecan-12-yl)isobutyramide] (Isobutyryl-[dαMeDab][Orn(2-imidazolinyl)][Abu][dCha]; lactam 1-C) the IC50 was 0.67 µM.
For `CC[C@@H]1NC(=O)[C@H](CCCNc2ncc[nH]2)NC(=O)[C@](C)(NC(=O)C(C)C)CCNC(=O)[C@@H](c2ccccc2)NC1=O` [Cpd. No. 20, N-((3R,6S,9S,12R)-9-(3-((1H-imidazol-2-yl)amino)propyl)-6-ethyl-12-methyl-2,5,8,11-tetraoxo-3-phenyl-1,4,7,10-tetraazacyclotetradecan-12-yl)isobutyramide] (Isobutyryl-[dαMeDab][Orn](Imidazol2yl)[Abu][dPhg]; lactam 1-C), the IC50 was greater than 10 µM.
Molecule `CC[C@@H]1NC(=O)C(CCCc2ccccc2)NC(=O)[C@](C)(NC(=O)C(C)C)CCNC(=O)[C@@H](c2ccccc2)NC1=O` (stereo partly drawn) [Cpd. No. 14, N-((3R,6S,12R)-6-ethyl-12-methyl-2,5,8,11-tetraoxo-3-phenyl-9-(3-phenylpropyl)-1,4,7,10-tetraazacyclotetradecan-12-yl)isobutyramide] (Isobutyryl-[dαMeDab][ξhhPhe][Abu][dPhg]; lactam 1-C) has an IC50 greater than 10 µM.
In the case of `CC[C@@H]1NC(=O)[C@H](CCCN2CCN(C)CC2)NC(=O)[C@](C)(NC(=O)C(C)C)CCNC(=O)[C@@H](CC2CCCCC2)NC1=O` [Cpd. No. 43, N-((3R,6S,9S,12R)-3-(cyclohexylmethyl)-6-ethyl-12-methyl-9-(3-(4-methylpiperazin-1-yl)propyl)-2,5,8,11-tetraoxo-1,4,7,10-tetraazacyclotetradecan-12-yl)isobutyramide], the IC50 is reported as greater than 10 µM.
`CC[C@@H]1NC(=O)[C@H](CCCNC(=N)N)NC(=O)[C@](C)(NC(=O)C(C)C)CCNC(=O)[C@@H](c2ccccc2Cl)NC1=O` [Cpd. No. 83, N-((3R,6S,9S,12R)-3-(2-chlorophenyl)-6-ethyl-9-(3-guanidinopropyl)-12-methyl-2,5,8,11-tetraoxo-1,4,7,10-tetraazacyclotetradecan-12-yl)isobutyramide] was tested, and the IC50 was 2.6 µM.
With `CC[C@@H]1NC(=O)[C@H](CCCNC(=N)N)NC(=O)[C@](C)(NC(=O)C(C)C)CCNC(=O)[C@@H](Cc2cccc3ccccc23)NC1=O` [Cpd. No. 58, N-((3R,6S,9S,12R)-6-ethyl-9-(3-guanidinopropyl)-12-methyl-3-(naphthalen-1-ylmethyl)-2,5,8,11-tetraoxo-1,4,7,10-tetraazacyclotetradecan-12-yl)isobutyramide] (Isobutyryl-[dαMeDab]R[Abu][d1Nal]; lactam 1-C) the IC50 was 2.37 µM.
`CC[C@@H]1NC(=O)[C@H](CCCNC(=N)N)NC(=O)[C@](C)(NC(=O)C(C)C)CCNC(=O)[C@@H](c2cccc3ccccc23)NC1=O` [Cpd. No. 81, N-((3R,6S,9S,12R)-6-ethyl-9-(3-guanidinopropyl)-12-methyl-3-(naphthalen-1-yl)-2,5,8,11-tetraoxo-1,4,7,10-tetraazacyclotetradecan-12-yl)isobutyramide] showed an IC50 of 1.29 µM.
In the case of `CC[C@@H]1NC(=O)[C@H](CCCNC(N)NC)NC(=O)[C@](C)(NC(=O)C(C)C)CCNC(=O)[C@@H](CC2CCCCC2)NC1=O` (stereo partly drawn) [Cpd. No. 87, N-((3R,6S,9S,12R)-9-(3-((amino(methylamino)methyl)amino)propyl)-3-(cyclohexylmethyl)-6-ethyl-12-methyl-2,5,8,11-tetraoxo-1,4,7,10-tetraazacyclotetradecan-12-yl)isobutyramide], the IC50 is reported as 0.46 µM.
Molecule `CC[C@@H]1NC(=O)[C@H](CCCNC2CCN(C)CC2)NC(=O)[C@](C)(NC(=O)C(C)C)CCNC(=O)[C@@H](c2ccccc2)NC1=O` [Cpd. No. 9, N-((3R,6S,9S,12R)-6-ethyl-12-methyl-9-(3-((1-methylpiperidin-4-yl)arnino)propyl)-2,5,8,11-tetraoxo-3-phenyl-1,4,7,10-tetraazacyclotetradecan-12-yl)isobutyramide] has an IC50 greater than 10 µM.
`CC[C@@H]1NC(=O)[C@H](CCCNC(=N)N)NC(=O)[C@](C)(NC(=O)C(C)C)CCNC(=O)[C@@H](c2ccccc2OC)NC1=O` [Cpd. No. 99, N-((3R,6S,9S,12R)-6-ethyl-9-(3-guanidinopropyl)-3-(2-methoxyphenyl)-12-methyl-2,5,8,11-tetraoxo-1,4,7,10-tetraazacyclotetradecan-12-yl)isobutyramide] (Isobutyryl-[dαMeDab]R[Abu][dPhg(2-OMe)]; lactam 1-C) was tested, and the IC50 was 1.6 µM.
`CC[C@@H]1NC(=O)[C@H](CCCNC(=N)N)NC(=O)[C@](C)(NC(=O)C(C)C)CCNC(=O)[C@@H](c2ccc(Cl)cc2)NC1=O` [Cpd. No. 100, N-((3R,6S,9S,12R)-3-(4-chlorophenyl)-6-ethyl-9-(3-guanidinopropyl)-12-methyl-2,5,8,11-tetraoxo-1,4,7,10-tetraazacyclotetradecan-12-yl)isobutyramide] showed an IC50 of 2.2 µM.
In the case of `CC[C@@H]1NC(=O)C(CCc2ccccc2)NC(=O)[C@](C)(NC(=O)C(C)C)CCNC(=O)[C@@H](c2ccccc2)NC1=O` (stereo partly drawn) [Cpd. No. 13, N-((3R,6S,12R)-6-ethyl-12-methyl-2,5,8,11-tetraoxo-9-phenethyl-3-phenyl-1,4,7,10-tetraazacyclotetradecan-12-yl)isobutyramide] (Isobutyryl-[dαMeDab][ξhPhe][Abu][dPhg]; lactam 1-C), the IC50 is reported as greater than 10 µM.
For `CC[C@@H]1NC(=O)[C@H](CCCNC(=N)N)NC(=O)[C@](C)(NC(=O)C(C)C)CCNC(=O)[C@@H](C2CCCC2)NC1=O` [Cpd. No. 50, N-((3R,6S,9S,12R)-3-cyclopentyl-6-ethyl-9-(3-guanidinopropyl)-12-methyl-2,5,8,11-tetraoxo-1,4,7,10-tetraazacyclotetradecan-12-yl)isobutyramide] (Isobutyryl-[dαMeDab]R[Abu][dGly(cPent)]; lactam 1-C), the IC50 was 1.19 µM.
With `CC[C@@H]1NC(=O)[C@H](CCCNC(=N)NC#N)NC(=O)[C@](C)(NC(=O)C(C)C)CCNC(=O)[C@@H](CC2CCCCC2)NC1=O` [Cpd. No. 33, N-((3R,6S,9S,12R)-9-(3-(3-cyanoguanidino)propyl)-3-(cyclohexylmethyl)-6-ethyl-12-methyl-2,5,8,11-tetraoxo-1,4,7,10-tetraazacyclotetradecan-12-yl)isobutyramide] the IC50 was 6.5 µM.
For `CC[C@@H]1NC(=O)[C@H](CCNc2ncc[nH]2)NC(=O)[C@](C)(NC(=O)C(C)C)CCNC(=O)[C@@H](c2ccccc2)NC1=O` [Cpd. No. 19, N-((3R,6S,9S,12R)-9-(2-((1H-imidazol-2-yl)amino)ethyl)-6-ethyl-12-methyl-2,5,8,11-tetraoxo-3-phenyl-1,4,7,10-tetraazacyclotetradecan-12-yl)isobutyramide] (Isobutyryl-[dαMeDab][Dab](Imidazol2yl)[Abu][dPhg]; lactam 1-C), the IC50 was greater than 10 µM.
`CC[C@@H]1NC(=O)[C@H](CCCNC(=N)N)NC(=O)[C@](C)(NC(=O)C(C)C)CCNC(=O)[C@@H](Cc2ccc(F)cc2)NC1=O` [Cpd. No. 57, N-((3R,6S,9S,12R)-6-ethyl-3-(4-fluorobenzyl)-9-(3-guanidinopropyl)-12-methyl-2,5,8,11-tetraoxo-1,4,7,10-tetraazacyclotetradecan-12-yl)isobutyramide] (Isobutyryl-[dαMeDab]R[Abu][dPhe(4-F)]; lactam 1-C) was tested, and the IC50 was 6.51 µM.
For `CC[C@@H]1NC(=O)[C@H](CCCCN(C)C)NC(=O)[C@](C)(NC(=O)C(C)C)CCNC(=O)[C@@H](c2ccccc2)NC1=O` [Cpd. No. 6, N-((3R,6S,9S,12R)-9-(4-(dimethylamino)butyl)-6-ethyl-12-methyl-2,5,8,11-tetraoxo-3-phenyl-1,4,7,10-tetraazacyclotetradecan-12-yl)isobutyramide] (Isobutyryl-[dαMeDab][Lys(Me2)][Abu][dPhg]; lactam 1-C), the IC50 was greater than 10 µM.

Same assay, conditions: Homo sapiens, MOLM-13, 96 h; Table 2A; 4 days treatment; read-out: MOLM-13 IC50
Molecule `CC[C@@H]1NC(=O)C(CCCNC(=O)CCl)NC(=O)[C@](C)(NC(=O)C(C)C)CCNC(=O)[C@@H](c2ccccc2)NC1=O` (stereo partly drawn) [Cpd. No. 25, N-((3R,6S,12R)-9-(3-(2-chloroacetamido)propyl)-6-ethyl-12-methyl-2,5,8,11-tetraoxo-3-phenyl-1,4,7,10-tetraazacyclotetradecan-12-yl)isobutyramide] (Isobutyryl-[dαMeDab][ξOrn](ClAc)[Abu][dPhg]; lactam 1-C) has an IC50 greater than 10 µM.
`CC[C@@H]1NC(=O)[C@H](CCCNC(=N)N[N+](=O)[O-])NC(=O)[C@](C)(NC(=O)C(C)C)CCNC(=O)[C@@H](CC2CCCCC2)NC1=O` [Cpd. No. 32, N-((3R,6S,9S,12R)-3-(cyclohexylmethyl)-6-ethyl-12-methyl-9-(3-(3-nitroguanidino)propyl)-2,5,8,11-tetraoxo-1,4,7,10-tetraazacyclotetradecan-12-yl)isobutyramide] (Isobutyryl-[dαMeDab][Arg(NO2)][Abu][dCha]; lactam 1-C) showed an IC50 greater than 10 µM.
`CC[C@@H]1NC(=O)[C@H](CCCNC(=N)N)NC(=O)[C@](C)(NC(=O)C(C)C)CCNC(=O)[C@@H](C)NC1=O` [Cpd. No. 48, N-((3R,6S,9S,12R)-6-ethyl-9-(3-guanidinopropyl)-3,12-dimethyl-2,5,8,11-tetraoxo-1,4,7,10-tetraazacyclotetradecan-12-yl)isobutyramide] (Isobutyryl-[dαMeDab]R[Abu][dA]; lactam 1-C) gave an IC50 of 1.72 µM.
`CC[C@@H]1NC(=O)[C@H](CCCNC(=N)N)NC(=O)[C@](C)(NC(=O)C(C)C)CCNC(=O)[C@@H](CC(C)C)NC1=O` [Cpd. No. 49, N-((3R,6S,9S,12R)-6-ethyl-9-(3-guanidinopropyl)-3-isobutyl-12-methyl-2,5,8,11-tetraoxo-1,4,7,10-tetraazacyclotetradecan-12-yl)isobutyramide] (Isobutyryl-[dαMeDab]R[Abu][dL]; lactam 1-C) gave an IC50 of 1.88 µM.
